Assays:
[1] = system: EGFR^L858R/T790M/C797S models; conditions: daily oral dosing at 50 mg/kg; cited from earlier work
[2] = system: A431 (wt EGFR); conditions: daily oral dosing at 50 mg/kg; cited from earlier work
[3] = system: Ba/F3 EGFR^L858R/T790M cells; assay: cells; conditions: Mus musculus, BaF3, read-out: cell EC50, Ba/F3 EGFR L858R/T790M
[4] = system: Ba/F3 EGFR^L858R/T790M/C797S cells; assay: cells; conditions: Mus musculus, BaF3, read-out: cell EC50, Ba/F3 EGFR L858R/T790M/C797S
[5] = system: Ba/F3 EGFR^L858R/T790M cells; conditions: cited from earlier work
[6] = system: H1975 (EGFR^L858R/T790M); conditions: daily oral dosing at 100 mg/kg; cited from earlier work

## CN1CCC(c2ccc(-c3ccc4c(c3)C(=O)N(C(C(=O)Nc3nccs3)c3cc(F)ccc3O)C4)cc2)CC1 (stereo not drawn) [Compound 4]
[1]
  efficacy in triple mutant (EGFR L858R/T790M/C797S) models: tumor regression
[2]
  efficacy in A431 (wt EGFR) model: minimal effects

## CN1CCC(c2ccc(-c3ccc4ncn(C(C(=O)Nc5nccs5)c5ccccc5)c(=O)c4c3)cc2)CC1 (stereo not drawn) [Compound 23]
[3]
  EC50: 720 nM
[4]
  EC50: 50 nM

## O=C(Nc1nccs1)C(c1cc(F)ccc1O)N1Cc2ccc(-c3ccc(N4CCNCC4)cc3)cc2C1=O (stereo not drawn) [Compound 2]
[5]
  single-agent activity in Ba/F3 EGFR L858R/T790M antiproliferative assay: good single-agent activity
[6]
  H1975 model efficacy: efficacy was observed

Source: article PMC9749896 (Bioorganic & medicinal chemistry letters, 2022)
